Experimental data: patent publication EP4722207A1, “OXOISOINDOLINYL-SUBSTITUTED TETRAHYDROPYRIMIDINEDIONE DERIVATIVE AND USE THEREOF” (Gluetacs Therapeutics (Shanghai) Co., Ltd., priority 2023, dated 2024)

Columns and labels:
Type in all cases: cell-based
Conditions in all cases: 24 hours of compound treatment, 50 nM and 500 nM
IKZF1 = target: T1, IKZF1 (Homo sapiens, UniProt Q13422+Q96SW2); assay: Western-blot assay, substrate protein degradation in hPBMCs: IKZF1
T1 construct: effects of the compounds of the present disclosure on the expression of target proteins in cells; endogenous in cells; host or cells: human PBMCs (hPBMCs)
T1 sequence (Q13422 whole entry): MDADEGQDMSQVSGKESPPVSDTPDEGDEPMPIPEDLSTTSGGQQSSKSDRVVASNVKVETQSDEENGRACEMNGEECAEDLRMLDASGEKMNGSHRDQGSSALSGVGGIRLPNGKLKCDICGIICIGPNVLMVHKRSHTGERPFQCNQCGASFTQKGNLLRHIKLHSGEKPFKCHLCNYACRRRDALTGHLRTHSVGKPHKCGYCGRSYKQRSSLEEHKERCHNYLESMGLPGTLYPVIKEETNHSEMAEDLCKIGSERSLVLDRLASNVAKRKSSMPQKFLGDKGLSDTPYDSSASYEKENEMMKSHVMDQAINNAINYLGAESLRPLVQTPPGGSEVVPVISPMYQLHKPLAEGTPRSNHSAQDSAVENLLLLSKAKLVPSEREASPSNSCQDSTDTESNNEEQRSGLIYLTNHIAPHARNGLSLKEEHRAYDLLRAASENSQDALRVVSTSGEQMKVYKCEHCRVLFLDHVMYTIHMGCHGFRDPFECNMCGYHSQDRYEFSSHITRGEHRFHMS
T1 sequence (Q96SW2 whole entry): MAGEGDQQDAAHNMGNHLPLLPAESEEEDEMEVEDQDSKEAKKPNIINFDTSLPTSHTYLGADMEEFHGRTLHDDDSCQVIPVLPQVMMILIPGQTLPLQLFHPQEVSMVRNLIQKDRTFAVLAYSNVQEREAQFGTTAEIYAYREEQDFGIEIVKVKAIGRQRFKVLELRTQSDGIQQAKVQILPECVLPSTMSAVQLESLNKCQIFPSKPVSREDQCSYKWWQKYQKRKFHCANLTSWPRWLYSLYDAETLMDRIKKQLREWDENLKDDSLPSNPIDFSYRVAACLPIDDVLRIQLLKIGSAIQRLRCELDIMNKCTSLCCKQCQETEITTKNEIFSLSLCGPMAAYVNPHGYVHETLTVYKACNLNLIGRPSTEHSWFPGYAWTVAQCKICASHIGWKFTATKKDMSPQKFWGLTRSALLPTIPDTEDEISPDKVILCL
T1 sequence (Q16531 whole entry partner): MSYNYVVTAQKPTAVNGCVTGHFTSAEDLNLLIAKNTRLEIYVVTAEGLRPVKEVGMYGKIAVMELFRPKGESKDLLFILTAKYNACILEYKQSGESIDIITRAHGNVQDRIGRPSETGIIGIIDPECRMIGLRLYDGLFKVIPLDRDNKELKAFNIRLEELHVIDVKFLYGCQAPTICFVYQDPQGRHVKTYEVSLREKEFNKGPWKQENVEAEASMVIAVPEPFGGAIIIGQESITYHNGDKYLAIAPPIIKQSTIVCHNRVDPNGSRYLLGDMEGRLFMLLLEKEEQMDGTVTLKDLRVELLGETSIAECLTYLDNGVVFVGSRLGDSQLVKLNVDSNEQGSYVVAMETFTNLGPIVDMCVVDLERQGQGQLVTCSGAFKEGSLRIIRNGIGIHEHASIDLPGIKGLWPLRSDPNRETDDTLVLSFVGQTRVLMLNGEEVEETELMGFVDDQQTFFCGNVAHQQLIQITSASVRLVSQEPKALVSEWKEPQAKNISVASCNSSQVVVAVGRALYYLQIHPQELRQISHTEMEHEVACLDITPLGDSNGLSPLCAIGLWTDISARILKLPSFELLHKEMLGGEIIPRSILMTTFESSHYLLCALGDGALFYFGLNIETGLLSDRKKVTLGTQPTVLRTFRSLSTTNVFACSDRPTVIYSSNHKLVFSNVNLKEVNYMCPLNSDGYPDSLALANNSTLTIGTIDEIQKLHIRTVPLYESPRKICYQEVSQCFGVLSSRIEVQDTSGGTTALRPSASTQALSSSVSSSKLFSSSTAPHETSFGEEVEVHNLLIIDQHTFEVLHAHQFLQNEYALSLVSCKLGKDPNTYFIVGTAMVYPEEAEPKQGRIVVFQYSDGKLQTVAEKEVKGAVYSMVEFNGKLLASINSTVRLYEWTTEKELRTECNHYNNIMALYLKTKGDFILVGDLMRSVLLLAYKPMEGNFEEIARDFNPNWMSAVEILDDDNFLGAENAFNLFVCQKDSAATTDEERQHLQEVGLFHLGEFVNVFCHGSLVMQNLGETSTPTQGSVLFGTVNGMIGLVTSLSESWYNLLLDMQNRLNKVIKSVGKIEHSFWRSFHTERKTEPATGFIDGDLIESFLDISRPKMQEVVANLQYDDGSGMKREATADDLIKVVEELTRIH

IKZF3 = target: T2, IKZF3 (Homo sapiens, UniProt Q96SW2+Q9UKT9); assay: Western-blot assay, substrate protein degradation in hPBMCs: IKZF3
T2 construct: effects of the compounds of the present disclosure on the expression of target proteins in cells; endogenous in cells; host or cells: human PBMCs (hPBMCs)
T2 sequence (Q9UKT9 whole entry): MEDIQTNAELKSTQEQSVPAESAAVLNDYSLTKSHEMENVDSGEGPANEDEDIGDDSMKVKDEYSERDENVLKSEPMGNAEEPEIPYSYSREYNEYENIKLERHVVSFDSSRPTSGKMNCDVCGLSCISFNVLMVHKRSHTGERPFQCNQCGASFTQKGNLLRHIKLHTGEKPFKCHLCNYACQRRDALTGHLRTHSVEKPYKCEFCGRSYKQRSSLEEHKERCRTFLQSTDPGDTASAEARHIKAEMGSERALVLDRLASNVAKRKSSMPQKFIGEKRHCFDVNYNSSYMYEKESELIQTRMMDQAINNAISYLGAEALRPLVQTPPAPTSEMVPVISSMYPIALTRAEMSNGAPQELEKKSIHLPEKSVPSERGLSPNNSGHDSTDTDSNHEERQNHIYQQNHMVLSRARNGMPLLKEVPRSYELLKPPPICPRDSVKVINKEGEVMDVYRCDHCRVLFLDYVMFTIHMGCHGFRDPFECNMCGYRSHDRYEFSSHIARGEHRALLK
T2 sequence (Q96SW2 whole entry): as the sequence (Q96SW2 whole entry) above
T2 sequence (Q16531 whole entry partner): as the sequence (Q16531 whole entry partner) above

IKZF2 = target: T3, IKZF2 (Homo sapiens, UniProt Q96SW2+Q9UKS7); assay: Western-blot assay, substrate protein degradation in hPBMCs: IKZF2
T3 construct: effects of the compounds of the present disclosure on the expression of target proteins in cells; endogenous in cells; host or cells: human PBMCs (hPBMCs)
T3 sequence (Q9UKS7 whole entry): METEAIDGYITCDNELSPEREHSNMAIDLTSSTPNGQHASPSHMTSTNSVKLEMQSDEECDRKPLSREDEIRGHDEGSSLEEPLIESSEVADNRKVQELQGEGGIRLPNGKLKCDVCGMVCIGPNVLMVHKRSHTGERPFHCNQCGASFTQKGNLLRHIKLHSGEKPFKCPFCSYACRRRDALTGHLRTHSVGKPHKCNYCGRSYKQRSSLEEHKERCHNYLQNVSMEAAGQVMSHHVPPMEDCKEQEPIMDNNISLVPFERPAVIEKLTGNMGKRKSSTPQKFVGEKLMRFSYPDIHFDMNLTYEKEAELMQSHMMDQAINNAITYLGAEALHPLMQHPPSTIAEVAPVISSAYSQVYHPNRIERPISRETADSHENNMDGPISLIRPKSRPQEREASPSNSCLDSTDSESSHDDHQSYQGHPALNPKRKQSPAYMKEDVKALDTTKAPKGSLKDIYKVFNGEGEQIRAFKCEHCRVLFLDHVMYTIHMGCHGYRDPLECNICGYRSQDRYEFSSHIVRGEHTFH
T3 sequence (Q96SW2 whole entry): as the sequence (Q96SW2 whole entry) above
T3 sequence (Q16531 whole entry partner): as the sequence (Q16531 whole entry partner) above

GSPT1 = target: T4, GSPT1 (Homo sapiens, UniProt P15170+Q96SW2); assay: Western-blot assay, substrate protein degradation in hPBMCs: GSPT1
T4 construct: effects of the compounds of the present disclosure on the expression of target proteins in cells; endogenous in cells; host or cells: human PBMCs (hPBMCs)

CK1α = target: T5, CK1α (Homo sapiens, UniProt P48729+Q96SW2); assay: Western-blot assay, substrate protein degradation in hPBMCs: CK1α
T5 construct: effects of the compounds of the present disclosure on the expression of target proteins in cells; endogenous in cells; host or cells: human PBMCs (hPBMCs)
T5 sequence (P48729 whole entry): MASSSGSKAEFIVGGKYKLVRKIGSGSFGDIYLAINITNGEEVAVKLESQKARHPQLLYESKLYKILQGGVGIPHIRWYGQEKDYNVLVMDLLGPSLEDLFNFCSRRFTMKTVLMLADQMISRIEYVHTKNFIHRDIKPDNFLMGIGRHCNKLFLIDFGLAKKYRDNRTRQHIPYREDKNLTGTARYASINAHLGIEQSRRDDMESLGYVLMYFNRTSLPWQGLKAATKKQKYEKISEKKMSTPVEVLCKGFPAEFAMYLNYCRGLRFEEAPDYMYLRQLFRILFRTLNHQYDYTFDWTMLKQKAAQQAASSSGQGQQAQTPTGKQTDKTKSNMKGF
T5 sequence (Q96SW2 whole entry): as the sequence (Q96SW2 whole entry) above
T5 sequence (Q16531 whole entry partner): as the sequence (Q16531 whole entry partner) above

WEE1 = target: T6, WEE1 (Homo sapiens, UniProt P30291+Q96SW2); assay: Western-blot assay, substrate protein degradation in hPBMCs: WEE1
T6 construct: effects of the compounds of the present disclosure on the expression of target proteins in cells; endogenous in cells; host or cells: human PBMCs (hPBMCs)
T6 sequence (P30291 whole entry): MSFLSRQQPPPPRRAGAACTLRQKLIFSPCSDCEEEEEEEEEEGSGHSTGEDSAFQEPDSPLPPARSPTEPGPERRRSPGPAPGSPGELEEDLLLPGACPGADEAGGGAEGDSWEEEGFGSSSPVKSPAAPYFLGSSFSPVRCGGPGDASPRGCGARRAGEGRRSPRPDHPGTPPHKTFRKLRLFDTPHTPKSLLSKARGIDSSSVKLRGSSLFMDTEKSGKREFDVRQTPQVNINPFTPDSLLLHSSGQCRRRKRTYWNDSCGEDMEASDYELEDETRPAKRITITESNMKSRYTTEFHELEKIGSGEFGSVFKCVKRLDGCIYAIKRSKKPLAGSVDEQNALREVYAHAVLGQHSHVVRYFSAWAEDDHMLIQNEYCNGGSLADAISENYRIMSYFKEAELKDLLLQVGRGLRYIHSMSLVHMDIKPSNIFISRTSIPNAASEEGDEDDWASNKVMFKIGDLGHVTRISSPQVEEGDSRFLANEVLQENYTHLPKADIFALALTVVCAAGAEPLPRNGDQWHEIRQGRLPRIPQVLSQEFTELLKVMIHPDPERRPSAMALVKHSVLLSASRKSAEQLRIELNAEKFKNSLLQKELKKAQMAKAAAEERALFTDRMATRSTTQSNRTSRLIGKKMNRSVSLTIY
T6 sequence (Q96SW2 whole entry): as the sequence (Q96SW2 whole entry) above
T6 sequence (Q16531 whole entry partner): as the sequence (Q16531 whole entry partner) above

SMILES | substrate protein remaining % IKZF1 (IKZF1) | substrate protein remaining % IKZF3 (IKZF3) | substrate protein remaining % IKZF2 (IKZF2) | substrate protein remaining % GSPT1 (GSPT1) | substrate protein remaining % CK1α (CK1α) | substrate protein remaining % WEE1 (WEE1)
O=C1CCN(N2Cc3cc(CN4CC(c5ccnc6cc(F)ccc56)C4)ccc3C2=O)C(=O)N1 [GT-07711, 1-(5-((3-(7-fluoroquinolin-4-yl)azetidin-1-yl)methyl)-1-oxoisoindolin-2-yl)dihydropyrimidine-2,4(1H,3H)-dione] | A (0% ≤ substrate protein remaining % ≤ 80%) | A (0% ≤ substrate protein remaining % ≤ 80%) | A (0% ≤ substrate protein remaining % ≤ 80%) | A (0% ≤ substrate protein remaining % ≤ 80%) | A (0% ≤ substrate protein remaining % ≤ 80%) | B (80%< substrate protein remaining %≤ 100%)
O=C1CCN(N2C(=O)c3ccc(CN4CC(C5CCOc6cc(F)ccc65)C4)cc3C2=O)C(=O)N1 (stereo not drawn) [GT-07715, 2-(2,4-dioxotetrahydropyrimidin-1(2H)-yl)-5-((3-(7-fluorochroman-4-yl)azetidin-1-yl)methyl)isoindoline-1,3-dione] | B (80%< substrate protein remaining %≤ 100%) | B (80%< substrate protein remaining %≤ 100%) | B (80%< substrate protein remaining %≤ 100%) | A (0% ≤ substrate protein remaining % ≤ 80%) | A (0% ≤ substrate protein remaining % ≤ 80%) | B (80%< substrate protein remaining %≤ 100%)
O=C1CCN(N2C(=O)c3ccc(CN4CC(c5ccnc6cc(F)ccc56)C4)cc3C2=O)C(=O)N1 [GT-07718, 2-(2,4-dioxotetrahydropyrimidin-1(2H)-yl)-5-((3-(7-fluoroquinolin-4-yl)azetidin-1-yl)methyl)isoindoline-1,3-dione] | B (80%< substrate protein remaining %≤ 100%) | A (0% ≤ substrate protein remaining % ≤ 80%) | B (80%< substrate protein remaining %≤ 100%) | A (0% ≤ substrate protein remaining % ≤ 80%) | A (0% ≤ substrate protein remaining % ≤ 80%) | B (80%< substrate protein remaining %≤ 100%)
O=C1CCN(N2Cc3cc(CN4CCn5c(nnc5C(F)(F)F)C4)ccc3C2=O)C(=O)N1 [GT-07719, 1-(1-oxo-5-((3-(trifluoromethyl)-5,6-dihydro-[1,2,4]triazolo[4,3-a]pyrazin-7(8H)-yl)methyl)isoindolin-2-yl)dihydropyrimidine-2,4(1H,3H)-dione] | B (80%< substrate protein remaining %≤ 100%) | A (0% ≤ substrate protein remaining % ≤ 80%) | A (0% ≤ substrate protein remaining % ≤ 80%) | A (0% ≤ substrate protein remaining % ≤ 80%) | A (0% ≤ substrate protein remaining % ≤ 80%) | B (80%< substrate protein remaining %≤ 100%)
O=C1CCN(N2Cc3cc(CN4CCc5sccc5C4)ccc3C2=O)C(=O)N1 [GT-07720, 1-(5-((6,7-dihydrothieno[3,2-c]pyridin-5(4H)-yl)methyl)-1-oxoisoindolin-2-yl)dihydropyrimidine-2,4(1H,3H)-dione] | A (0% ≤ substrate protein remaining % ≤ 80%) | A (0% ≤ substrate protein remaining % ≤ 80%) | A (0% ≤ substrate protein remaining % ≤ 80%) | A (0% ≤ substrate protein remaining % ≤ 80%) | A (0% ≤ substrate protein remaining % ≤ 80%) | A (0% ≤ substrate protein remaining % ≤ 80%)
O=C1CCN(N2Cc3cc(CN4CCN(Cc5ccc(C67CC8CC(CC(C8)C6)C7)cc5)CC4)ccc3C2=O)C(=O)N1 [GT-07721, 1-(5-((4-(4-((3r,5r,7r)-adamantan-1-yl)benzyl)piperazin-1-yl)methyl)-1-oxoisoindolin-2-yl)dihydropyrimidine-2,4(1H,3H)-dione] | A (0% ≤ substrate protein remaining % ≤ 80%) | A (0% ≤ substrate protein remaining % ≤ 80%) | A (0% ≤ substrate protein remaining % ≤ 80%) | A (0% ≤ substrate protein remaining % ≤ 80%) | A (0% ≤ substrate protein remaining % ≤ 80%) | A (0% ≤ substrate protein remaining % ≤ 80%)
O=C1CCN(N2C(=O)c3ccc(CN4CCN(Cc5ccc(C67CC8CC(CC(C8)C6)C7)cc5)CC4)cc3C2=O)C(=O)N1 [GT-07722, 5-((4-(4-((3r,5r,7r)-adamantan-1-yl)benzyl)piperazin-1-yl)methyl)-2-(2,4-dioxotetrahydropyrimidin-1(2H)-yl)isoindoline-1,3-dione] | B (80%< substrate protein remaining %≤ 100%) | A (0% ≤ substrate protein remaining % ≤ 80%) | A (0% ≤ substrate protein remaining % ≤ 80%) | A (0% ≤ substrate protein remaining % ≤ 80%) | A (0% ≤ substrate protein remaining % ≤ 80%) | A (0% ≤ substrate protein remaining % ≤ 80%)
NCc1ccc2c(c1)C(=O)N(N1CCC(=O)NC1=O)C2=O [GT-07968, 5-(aminomethyl)-2-(2,4-dioxotetrahydropyrimidin-1(2H)-yl)isoindoline-1,3-dione] | A (0% ≤ substrate protein remaining % ≤ 80%) | A (0% ≤ substrate protein remaining % ≤ 80%) | A (0% ≤ substrate protein remaining % ≤ 80%) | B (80%< substrate protein remaining %≤ 100%) | A (0% ≤ substrate protein remaining % ≤ 80%) | A (0% ≤ substrate protein remaining % ≤ 80%)
O=C1CCN(N2C(=O)c3ccc(CN4CC=C(c5ncnc6scc(-c7ccccc7)c56)CC4)cc3C2=O)C(=O)N1 [GT-08431, 2-(2,4-dioxotetrahydropyrimidin-1(2H)-yl)-5-((4-(5-phenylthieno[2,3-d]pyrimidin-4-yl)-3,6-dihydropyridin-1(2H)-yl)methyl)isoindoline-1,3-dione] | B (80%< substrate protein remaining %≤ 100%) | B (80%< substrate protein remaining %≤ 100%) | A (0% ≤ substrate protein remaining % ≤ 80%) | B (80%< substrate protein remaining %≤ 100%) | B (80%< substrate protein remaining %≤ 100%) | A (0% ≤ substrate protein remaining % ≤ 80%)
Cc1nc(C2=CCN(Cc3ccc4c(c3)C(=O)N(N3CCC(=O)NC3=O)C4=O)CC2)c2c3c(sc2n1)CCC3 [GT-08435, 2-(2,4-dioxotetrahydropyrimidin-1(2H)-yl)-5-((4-(2-methyl-6,7-dihydro-5H-cyclopenta[4,5]thieno[2,3-d]pyrimidin-4-yl)-3,6-dihydropyridin-1(2H)-yl)methyl)isoindoline-1,3-dione] | A (0% ≤ substrate protein remaining % ≤ 80%) | A (0% ≤ substrate protein remaining % ≤ 80%) | B (80%< substrate protein remaining %≤ 100%) | A (0% ≤ substrate protein remaining % ≤ 80%) | B (80%< substrate protein remaining %≤ 100%) | A (0% ≤ substrate protein remaining % ≤ 80%)
O=C1CCN(N2Cc3cc(CN4CCN(c5nc(Cl)nc6ccsc56)CC4)ccc3C2=O)C(=O)N1 [GT-08444, 1-(5-((4-(2-chlorothieno[3,2-d]pyrimidin-4-yl)piperazin-1-yl)methyl)-1-oxoisoindolin-2-yl)dihydropyrimidine-2,4(1H,3H)-dione] | B (80%< substrate protein remaining %≤ 100%) | B (80%< substrate protein remaining %≤ 100%) | B (80%< substrate protein remaining %≤ 100%) | B (80%< substrate protein remaining %≤ 100%) | B (80%< substrate protein remaining %≤ 100%) | A (0% ≤ substrate protein remaining % ≤ 80%)
O=C1CCN(N2C(=O)c3ccc(CN4CCN(c5nc(N6CCOCC6)nc6c5SCC6)CC4)cc3C2=O)C(=O)N1 [GT-08450, 2-(2,4-dioxotetrahydropyrimidin-1(2H)-yl)-5-((4-(2-morpholino-6,7-dihydrothieno[3,2-d]pyrimidin-4-yl)piperazin-1-yl)methyl)isoindoline-1,3-dione] | B (80%< substrate protein remaining %≤ 100%) | B (80%< substrate protein remaining %≤ 100%) | B (80%< substrate protein remaining %≤ 100%) | A (0% ≤ substrate protein remaining % ≤ 80%) | B (80%< substrate protein remaining %≤ 100%) | B (80%< substrate protein remaining %≤ 100%)
